Laboratory results as given in patent US12016863B2, “Inhibitors of RSV replication and applications thereof” (priority 2018, dated 2024).

What was measured:
RSV [1] = assay: Cell-based anti-RSV potency in BEAS2B cells; settings: human respiratory syncytial virus, BEAS-2B
Text: (§1) For initial potency assessment, recombinant RSV reporter viruses can be employed to determine dose-response curves. These tests can be run routinely in an automated format, simultaneously assessing 8-fold serial compound dilutions in 3 independent replicates. Active concentrations can be calculated by four-parameter variable slope regression modeling. Individual prodrug candidates failing this assay can be tested for membrane permeability using a Caco-2 cell assay. Resistance-validated Caco-2 monolayers (TEER value >0.5×103Ω) will receive compound from the apical side, followed by LC-MS/MS-based quantification of substance intracellularly and in both chambers after 2-hour incubation. Atenolol, propranolol, and talinolol can be included as references and permeability coefficients (Papp) calculated. Candidates with poor Papp values can be reformulated synthetically. In parallel, all candidates can be subjected to rapid cytotoxicity screening, relying on PrestoBlue to monitor the redox potential of living cells after 48-hour exposure to a concentration range of compound. A validated automated cytotoxicity test pipeline has been established and can calculate CC50 values through variable slope regression modeling.

[2] = Cytotoxicity in BEAS2B cells; type: cell-based; settings: human, read-out: CC50 BEAS2B cells RSV
Text: as §1

[3] = target: RSV N protein (N-P interaction) (Human respiratory syncytial virus A (strain A2), UniProt P03418); assay: FP assay: competition with 5-FAM-Ppep for purified RSV N; type: binding; settings: for Ki: FP assay, purified RSV N vs 5-FAM-Ppep
RSV [4] = assay: Cell-based anti-RSV potency in HEp2 cells; settings: human respiratory syncytial virus, HEp-2
Text: as §1

[5] = Cytotoxicity in HEp2 cells; type: cell-based; settings: human, read-out: CC50 HEp2 cells RSV
Text: as §1

RSV N-P interaction = RSV N-P interaction (Human respiratory syncytial virus A (strain A2), UniProt P03418); assay: Biolayer interferometry (BLI) competition assay, purified N to P protein biosensors; type: binding; settings: PBS+BSA 0.01% +Tween20 0.002%
Text: Dissociation rates of purified N to P protein biosensors determined in presence of GRP-171194 under stringent conditions (PBS+BSA 0.01% +Tween20 0.002%).

Sequence of RSV N protein (N-P interaction) (P03418 whole entry): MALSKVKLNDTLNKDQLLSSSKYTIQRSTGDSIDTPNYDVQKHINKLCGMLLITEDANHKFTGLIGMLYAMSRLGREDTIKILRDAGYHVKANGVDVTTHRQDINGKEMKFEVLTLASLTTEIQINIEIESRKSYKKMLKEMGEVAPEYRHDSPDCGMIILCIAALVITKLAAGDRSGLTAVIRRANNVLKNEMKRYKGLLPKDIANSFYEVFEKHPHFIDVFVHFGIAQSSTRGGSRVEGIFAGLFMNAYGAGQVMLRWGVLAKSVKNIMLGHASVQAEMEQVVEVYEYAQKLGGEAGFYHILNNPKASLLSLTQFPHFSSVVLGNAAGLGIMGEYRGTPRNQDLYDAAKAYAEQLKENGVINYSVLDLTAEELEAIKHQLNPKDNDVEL
Sequence of RSV N-P interaction (P03418 whole entry): as above

Work on `Cc1c(Cl)c(=O)oc2cc(O)ccc12` [AX801] yielded an IC50 (RSV [1]) of 65 µM, a CC50 at 48 h [2] of 116 µM and a Ki [3] greater than 300 µM.

Molecule `CC(C)COC(=O)C1=CC(c2ccccc2Cl)n2nnnc2N1` (centres unmarked) [EJ3043] has an IC50 (RSV [4]) greater than 300 µM, a CC50 at 48 h [5] greater than 300 µM and an IC50 (RSV [1]) greater than 300 µM. The CC50 at 48 h [2] was greater than 300 µM and the Ki [3] was greater than 300 µM.

In the case of `COC(=O)C1=CC(c2ccccc2Cl)n2nnnc2N1` (centres unmarked) [EJ3051], the IC50 (RSV [1]) is reported as 101 µM, the CC50 at 48 h [2] is reported as 102 µM and the Ki [3] is reported as greater than 300 µM.

`CN(C)C(=O)C1=CC(c2ccccc2Cl)n2nnnc2N1` (centres unmarked) [EJ3054] gave an IC50 (RSV [1]) of 100 µM, a CC50 at 48 h [2] of 131 µM and a Ki [3] greater than 300 µM.

With `CNC(=O)C1=CC(c2ccccc2Cl)n2nnnc2N1` (centres unmarked) [EJ3057] the IC50 (RSV [1]) was 112 µM, the CC50 at 48 h [2] was greater than 100 µM and the Ki [3] was greater than 300 µM.

Molecule `COc1ccc2c(C)c(Cl)c(=O)oc2c1` [EJ3061] has a Ki [3] greater than 300 µM.

`CCOC(=O)C1=CC(c2ccccc2Cl)n2nnnc2N1` (centres unmarked) [EJ3062] gave an IC50 (RSV [4]) greater than 300 µM, a CC50 at 48 h [5] greater than 300 µM and an IC50 (RSV [1]) greater than 300 µM. It also gave a CC50 at 48 h [2] greater than 300 µM and a Ki [3] greater than 300 µM.

`Cc1c(Cl)c(=O)oc2cc(OC(C)C)ccc12` [EJ3063] showed an IC50 (RSV [4]) of 1.9 µM, a CC50 at 48 h [5] of 1.2 µM and an IC50 (RSV [1]) of 14.6 µM. For the same molecule, the CC50 at 48 h [2] was greater than 300 µM and the Ki [3] was greater than 300 µM.

In the case of `COC(=O)Nc1ccc2c(C)c(Cl)c(=O)oc2c1` [EJ3066], the IC50 (RSV [4]) is reported as greater than 100 µM, the CC50 at 48 h [5] is reported as greater than 100 µM and the IC50 (RSV [1]) is reported as 130 µM. For the same molecule, the CC50 at 48 h [2] was greater than 100 µM and the Ki [3] was greater than 300 µM.

`CC(=O)Oc1ccc2c(C)cc(=O)oc2c1` [EJ21257] gave an IC50 (RSV [4]) greater than 300 µM, a CC50 at 48 h [5] greater than 100 µM and an IC50 (RSV [1]) greater than 300 µM. It also gave a CC50 at 48 h [2] of 113 µM and a Ki [3] of 2.9 µM.

In the case of `O=C(O)C1=CC(c2ccccc2Cl)n2nnnc2N1` (centres unmarked) [GRP-171194, 7-(2-chlorophenyl)-4,7-dihydrotetrazolo[1,5-a]pyrimidine-5-carboxylic acid], the IC50 (RSV [4]) is reported as greater than 300 µM, the CC50 at 48 h [5] is reported as greater than 300 µM and the IC50 (RSV [1]) is reported as greater than 300 µM. For the same molecule, the CC50 at 48 h [2] was greater than 300 µM, the “inhibition of purified N binding to P protein biosensors (BLI)” value (RSV N-P interaction) was “dose-dependent inhibition” and the Ki [3] was 2.4 µM. For the same molecule, the “competition with 5-FAM-Ppep for N in FP assay” value ([3]; compound 0.31-40 μM, 5-FAM-Ppep 1 μM) was “dose-dependent competition”.

In the case of `CC(=O)Oc1ccc2c(C)c(Cl)c(=O)oc2c1` [GRP-268365], the Ki [3] is reported as 2.2 µM.

Molecule `O=C(O)C1=CC(c2ccccc2)n2nnnc2N1` (centres unmarked) [RJW-3-024] has an IC50 (RSV [1]) greater than 300 µM, a CC50 at 48 h [2] greater than 300 µM and a Ki [3] of 10 µM.

Molecule `O=C(OCC(F)(F)F)C1=CC(c2ccccc2Cl)n2nnnc2N1` (centres unmarked) [ZD-3-064] has an IC50 (RSV [1]) greater than 300 µM, a CC50 at 48 h [2] greater than 300 µM and a Ki [3] greater than 300 µM.

With `Cc1c(Cl)c(=O)oc2cc(OC(=O)C(C)C)ccc12` [ZD-3-067] the IC50 (RSV [4]) was 6.5 µM, the CC50 at 48 h [5] was 7 µM and the IC50 (RSV [1]) was 136 µM. It also gave a CC50 at 48 h [2] of 251 µM and a Ki [3] of 1.6 µM.

In the case of `CC(C)OC(=O)C1=CC(c2ccccc2Cl)n2nnnc2N1` (centres unmarked) [ZD-3-069], the IC50 (RSV [4]) is reported as greater than 300 µM, the CC50 at 48 h [5] is reported as greater than 300 µM and the IC50 (RSV [1]) is reported as greater than 300 µM. The CC50 at 48 h [2] was greater than 300 µM and the Ki [3] was greater than 300 µM.
